Results on 52 compounds are retold here after US20260097047A1, “Small molecule inhibitors of the ribosome biogenesis factor NVL2” (Board of Regents, The University of Texas System, priority 2023, published 2026).

Molecules are shown by their SMILES. Where only a bound is given, the exact number is not on record here.

The test system of one test is HCT116 cells. The test can be described thus: Cell viability assay (CellTiter-Glo, 72 hours) in HCT116 human colorectal cancer cells. The test is classed as cell-based. To be noted: Homo sapiens, HCT-116; Table 5; HCT116, 72 hours; read-out: Activity. The protocol:
Cell culture: The HCT116 cell line was obtained from ATCC and cultured in Dulbecco's Modified Eagle's Medium (DMEM)-high glucose (Sigma Aldrich #D5796) supplemented with 10% fetal bovine serum (FBS) (Sigma-Aldrich #F2442) and 2 mM L-Glutamine (Sigma Aldrich #G7513). Cells were cultured at 37° C. in 5% CO2. The identity of all cell lines was confirmed by short tandem repeat (STR) analysis and confirmed to be mycoplasma-free using a PCR based assay (Genatlantis).
Cell viability assay: In 96-well assay plates (Corning #2903), 2,000 cells were plated per well in 100 μL of medium and allowed to adhere overnight. The next day, compounds suspended in DMSO were dispensed to the assayed wells using a D300e Digital Dispenser (Tecan). All wells were normalized to 0.5% DMSO. 72 hours after incubation at 37° C. in 5% CO2, cell viability was assayed using an ATP-based luminescent viability assay, CellTiter-Glo (Promega #G8462). Substrate was mixed 1:1 with phosphate-buffered saline (PBS) supplemented with 1% Triton X-100, and 40 μL of this mixture was added to the assay wells. Plates were shaken on a microplate shaker for 10 minutes at room temperature. Luminescence (CellTiter-Glo) was recorded using a Synergy 2 microplate reader (BioTek). In Prism 9 software (GraphPad), ten-point dose response curves were plotted with baseline-correction to the vehicle control well, and IC50 values were calculated by curve fitting using asymmetric (five parameter), least squares fit.
On the technique in general: Cellular ATP, detected with luciferase, serves as a proxy for viable cell number.
For `CC#CCN1C(=O)c2ccccc2Sc2cc(Nc3nnccc3C#N)ccc21` [3-((10-(But-2-yn-1-yl)-11-oxo-10,11-dihydrodibenzo[b,f][1,4]thiazepin-7-yl)amino)pyridazine-4-carbonitrile], the IC50 was less than 500 nM.

As to `CCC/C=C/CN1C(=O)c2ccccc2Sc2cc(Nc3cc(OC)ccn3)ccc21` [(E)-10-(Hex-2-en-1-yl)-7-((4-methoxypyridin-2-yl)amino)dibenzo[b,f][1,4]thiazepin-11 (10H)-one], the IC50 was less than 500 nM. Still for that read-out and setting: for `CC#CCN1C(=O)c2ccccc2Sc2cc(Nc3cc(C#N)ncn3)ccc21` [6-((10-(But-2-yn-1-yl)-11-oxo-10,11-dihydrodibenzo[b,f][1,4]thiazepin-7-yl)amino)pyrimidine-4-carbonitrile] the value was less than 500 nM; for `CC#CCN1C(=O)c2ccccc2Cc2cc(Nc3nccc(C#N)c3C)ccc21` [2-((5-(But-2-yn-1-yl)-6-oxo-6,11-dihydro-5H-dibenzo[b,e]azepin-2-yl)amino)-3-methylisonicotinonitrile], less than 500 nM. On the same count and under the same terms, for `CC#CCN1C(=O)c2ccccc2Cc2cc(Nc3ncccc3C)ccc21` [5-(But-2-yn-1-yl)-2-((3-methylpyridin-2-yl)amino)-5H-dibenzo[b,e]azepin-6 (11H)-one] the value was less than 500 nM.

Staying with this test, now noted: Homo sapiens, HCT-116; Table 9; HCT116, 72 hours; read-out: Activity.
Regarding `CC#CCN1C(=O)c2ccccc2C(C)(O)c2cc(NC(=O)c3ccc(OC)cc3)ccc21` (stereo not shown) [Table 9: —CH2CCMe; 4-MeOPh; CMeOH, N-(5-(But-2-yn-1-yl)-11-hydroxy-11-methyl-6-oxo-6,11-dihydro-5H-dibenzo[b,e]azepin-2-yl)-4-methoxybenzamide], the IC50 was less than 500 nM. Still for that read-out and setting: next, `CC#CCN1C(=O)c2ccccc2C(C#N)c2cc(NC(=O)c3ccc(OC)cc3)ccc21` (stereo not shown) [Table 9: —CH2CCMe; 4-MeOPh; CHCN, N-(5-(But-2-yn-1-yl)-11-cyano-6-oxo-6,11-dihydro-5H-dibenzo[b,e]azepin-2-yl)-4-methoxybenzamide]: less than 500 nM.

Still in this test, the particulars now being: Table 1; HCT116, 72 hours; read-out: Activity.
As to `CC#CCN1C(=O)c2ccccc2Sc2cc(NC(=O)N3CCC3)cnc21` [Table 1: —CH2CCMe; azetidin-1-yl; CH; N], the IC50 is less than 500 nM.

The test is the same for the next values; noted with them: Table 2; HCT116, 72 hours; read-out: Activity.
As for `CC#CCN1C(=O)c2ccccc2Sc2cc(NC(=S)N3CCCC3)cnc21`, the IC50 was less than 500 nM.

The test is the same for the next values; noted with them: Table 3; HCT116, 72 hours; read-out: Activity.
In the case of `CC#CCN1C(=O)c2ccccc2Sc2cc(NC(=O)N[C@H]3C[C@@H](O)C3)cnc21` [Table 3: —CH2CCMe; cis-3-OH-cBu; CH/N], the IC50 is less than 500 nM. As to `CC#CCN1C(=O)c2ccccc2Sc2cc(NC(=O)N[C@H]3C[C@@H](O)C3)ccc21` [Table 3: —CH2CCMe; cis-3-OH-cBu; CH/CH], the IC50 is less than 500 nM. The same measure, in the same setting: next, `CC#CCN1C(=O)c2ccccc2Sc2cc(NC(=O)N[C@H]3C[C@H](OC)C3)ccc21` [Table 3: —CH2CCMe; trans-3-MeOcBu; CH/CH]: less than 500 nM; `CC#CCN1C(=O)c2ccccc2Sc2cc(NC(=O)N[C@H]3C[C@H](O)C3)ccc21` [Table 3: —CH2CCMe; trans-3-OH-cBu; CH/CH]: less than 500 nM. Take `CC#CCN1C(=O)c2ccccc2Sc2cc(NC(=O)Nc3cccc(OCF)c3)ccc21` [Table 3: —CH2CCMe; 3-FH2COPh; CH/CH]: the IC50 was less than 500 nM.

Still in this test, the particulars now being: Table 4; HCT116, 72 hours; read-out: Activity.
Regarding `CC#CCN1C(=O)c2ccccc2Sc2cc(NC(=S)Nc3cccc(OC)c3)cnc21` [Table 4: —CH2CCMe; 3-MeOPh; N], the IC50 was less than 500 nM.

The test is the same for the next values; noted with them: Table 5; HCT116, 72 hours; read-out: Activity.
Turning to `CCCC=CCN1C(=O)c2ccccc2Sc2cc(Nc3ncccc3C#N)cnc21`, the IC50 was less than 500 nM. The same measure, in the same setting: for `C#CCN1C(=O)c2ccccc2Sc2cc(Nc3cccnn3)ccc21` the value was less than 500 nM. The same measure, in the same setting: for `CC=CCN1C(=O)c2ccccc2Sc2cc(Nc3ncc(C)cc3C)cnc21` the value was less than 500 nM; for `Cc1ccc(F)c(Nc2cnc3c(c2)Sc2ccccc2C(=O)N3CC#CCl)n1`, less than 500 nM.

Still in this test, the particulars now being: Table 6; HCT116, 72 hours; read-out: Activity.
Regarding `O=C1c2ccccc2Sc2cc(NC3COC3)cnc2N1CC#CCl` [Table 6: —CH2CCCl; oxetan-3-yl; CH/N; S], the IC50 is less than 500 nM. Same read-out and setting: for `CC#CCN1C(=O)c2ccccc2Cc2cc(NC3CC(O)C3)ccc21` (stereo not shown) [Table 6: —CH2CCMe; 3-HOcBu; CH/CH; CH2] the value was less than 500 nM. Take `C#CCN1C(=O)c2ccccc2Sc2cc(NC3CC(COC)C3)cnc21` (stereo not shown) [Table 6: —CH2CCH; 3-MeOCH2-cBu; CH/N; S]: the IC50 is less than 500 nM.

The test is the same for the next values; noted with them: Table 7; cell viability assay, CellTiter-Glo, 72 hours; scaffold drawing 42 with R^2, R^3, X/Y, Z; read-out: Activity.
With `COCCN1C(=O)c2ccccc2Sc2cc(NC(=O)c3ccno3)ccc21` [—(CH2)2OMe; isoxazol-5-yl; CH/CH; S], the IC50 lay within 1000 to 5000 nM. Same read-out and setting: for `COCCN1C(=O)c2ccccc2Sc2cc(NC(=O)c3ncccn3)ccc21` [—(CH2)2OMe; pyrimidin-2-yl; CH/CH; S] the value was 1000 to 5000 nM; for `CC=CCN1C(=O)c2ccccc2Sc2cc(NC(=O)c3ccc4scnc4c3)ccc21`, less than 500 nM; for `C#CCOCCN1C(=O)c2ccc(F)cc2Sc2cc(NC(=O)c3ccc4scnc4c3)ccc21`, less than 500 nM. On the same count and under the same terms, for `COCCN1C(=O)c2ccccc2Sc2cc(NC(=O)c3ccc(F)cc3)ccc21` [—(CH2)2OMe; 4-FPh; CH/CH; S] the value was 1000 to 5000 nM; for `COCCN1C(=O)c2ccccc2Sc2cc(NC(=O)c3cccc(OC)c3)ccc21` [—(CH2)2OMe; 3-MeOPh; CH/CH; S], less than 500 nM; for `COCCN1C(=O)c2ccccc2Sc2cc(NC(=O)c3ccc4ccccc4c3)ccc21` [—(CH2)2OMe; 2-naphtyl; CH/CH; S], 1000 to 5000 nM. Still for that read-out and setting: for `CNC(=O)CCCCCN1C(=O)c2ccccc2Sc2cc(NC(=O)c3ccoc3)ccc21` [—(CH2)5CONHMe; furan-3-yl; CH/CH; S] the value was 1000 to 5000 nM; for `CCCOCCN1C(=O)c2ccccc2Sc2cc(NC(=O)c3ccc(OC)cc3)ccc21` [—(CH2)2OPr; 4-MeOPh; CH/CH; S], less than 500 nM; for `C#CCOCCN1C(=O)c2ccccc2Sc2cc(NC(=O)c3ccc(OC)cc3)ccc21` [—(CH2)2OCH2CCH; 4-MeOPh; CH/CH; S], less than 500 nM.

The test is the same for the next values; noted with them: Table 8; analogs of scaffold drawing 43 defined by R^2, R^3, X/Y, W; read-out: Activity (IC50 class, cell viability assay).
With `CC#CCN1C(=O)c2ccccc2Sc2cc(NC(=O)OCCOC)cnc21` [—CH2CCMe; O(CH2)2OMe; CH/CH; N], the IC50 was less than 500 nM. On the same count and under the same terms, for `CC#CCN1C(=O)c2ccc(Cl)cc2Sc2cc(NC(=O)C34CC(OC)(C3)C4)cnc21` the value was less than 500 nM; for `CC#CCN1C(=O)c2cc(F)ccc2Sc2cc(NC(=O)C3CC4(CC(=NO)C4)C3)cnc21` (stereo not shown), less than 500 nM. Same read-out and setting: for `CC#CCN1C(=O)c2ccccc2Sc2cc(NC(=O)C3CC4(CCC4)C3)ccc21` the value was less than 500 nM; for `CC#CCN1C(=O)c2ccc(Cl)cc2Sc2cc(NC(=O)C3CC4(CC(O)C4)C3)ccc21` (stereo not shown), less than 500 nM; for `CC#CCN1C(=O)c2ccccc2Sc2cc(NC(=O)C34CC(O)(C3)C4)cnc21`, less than 500 nM. On the same count and under the same terms, next, `CO[C@H]1C[C@@H](C(=O)Nc2cnc3c(c2)Sc2cc(Cl)ccc2C(=O)N3CC#CCl)C1` [—CH2CCCl; cis-3-MeOcBu; CCl/CH; N]: less than 500 nM; `CC#CCN1C(=O)c2ccccc2Sc2cc(NC(=O)C3CC3)cnc21` [—CH2CCMe; cPr; CH/CH; N]: less than 500 nM.

As to `CC#CCN1C(=O)c2cc(F)ccc2Sc2cc(NC(=O)C3CCCO3)cnc21` (stereo not shown) [—CH2CCMe; tetrahydrofuran-2-yl; CH/CF; N], the IC50 was less than 500 nM.

In the case of `CC#CCN1C(=O)c2cc(F)ccc2Sc2cc(NC(=O)C34CC(OC)(C3)C4)cnc21`, the IC50 is less than 500 nM. Same read-out and setting: for `C#CCN1C(=O)c2cc(F)ccc2Sc2cc(NC(=O)C3CC4(CC(=NOC)C4)C3)ccc21` (stereo not shown) the value was less than 500 nM; for `CC#CCN1C(=O)c2ccccc2Sc2cc(NC(=O)C3CC4(CC(=O)C4)C3)ccc21`, less than 500 nM; for `O=C(Nc1cnc2c(c1)Sc1ccccc1C(=O)N2CC#CC1CC1)C1CC2(CC(O)C2)C1` (stereo not shown), less than 500 nM. In the case of `CC#CCN1C(=O)c2ccc(Cl)cc2Sc2cc(NC(=O)C3CC4(CC(=O)C4)C3)ccc21`, the IC50 is less than 500 nM. Same read-out and setting: for `COCC=CC(=O)Nc1cnc2c(c1)Sc1ccccc1C(=O)N2CC#CC1CC1` [—CH2CC^cPr; CH═CHCH2OMe; CH/CH; N] the value was less than 500 nM.

The same test, now with this note: Table 9; HCT116, 72 hours; read-out: Activity.
Regarding `CC#CCN1C(=O)c2ccccc2C(C)c2cc(NC(=O)C3CC(COC)C3)ccc21` (stereo not shown) [Table 9: —CH2CCMe; 3-MeOCH2-cBu; CHMe], the IC50 was less than 500 nM.

Consider `CC#CCN1C(=O)c2ccccc2C(C)(O)c2cc(NC(=O)[C@H]3C[C@@H](OC)C3)ccc21` (stereo partly drawn) [Table 9: —CH2CCMe; cis-3-MeOcBu; CMeOH], for which the IC50 is less than 500 nM. On the same count and under the same terms, next, `COCC=CC(=O)Nc1ccc2c(c1)C(C)c1ccccc1C(=O)N2CC#CC1CC1` (stereo not shown) [Table 9: —CH2CC^cPr; CH═CHCH2OMe; CHMe]: less than 500 nM. Same read-out and setting: for `COCC1CC(C(=O)Nc2ccc3c(c2)C(C)(O)c2ccccc2C(=O)N3CC#CCl)C1` (stereo not shown) [Table 9: —CH2CCCl; 3-MeOCH2-cBu; CMeOH] the value was less than 500 nM. On to `CO[C@H]1C[C@@H](C(=O)Nc2ccc3c(c2)C(C#N)c2ccccc2C(=O)N3CC#CC2CC2)C1` (stereo partly drawn) [Table 9: —CH2CCºPr; cis-3-MeOcBu; CHCN], for which the IC50 was less than 500 nM.
